Test results from ChEMBL document CHEMBL4396888, “Design and Synthesis of Potent, Selective Inhibitors of Protein Arginine Methyltransferase 4 against Acute Myeloid Leukemia” (J Med Chem, 2019).
Calls of active or inactive are those of the source. The calls are words filed in the database; no cut-off is given here.

Columns and labels:
[1] = Ratio of drug level in tumor of nude BALB/c mouse xenografted with human MOLM13 cells to IC50 for antiproliferative activity against human MOLM13 cells; type: cell-based
[2] = target: Histone-lysine N-methyltransferase SMYD3 (Homo sapiens) (UniProt Q9H7B4); assay: Inhibition of SMYD3 (unknown origin) up to 50 uM preincubated for 15 mins followed by substrate addition and measured after 60 mins by AlphaLisa assay
[3] = Protein binding in mouse plasma at 2 uM; type: ADME, cell-free; conditions: read-out: PPB (converted)
[4] = target: Histone-lysine N-methyltransferase SETD2 (Homo sapiens) (UniProt Q9BYW2); assay: Inhibition of SETD2 (unknown origin) up to 50 uM
[5] = target: Histone-lysine N-methyltransferase NSD2 (Homo sapiens) (UniProt O96028); assay: Inhibition of NSD2 (unknown origin) up to 50 uM preincubated for 15 mins followed by substrate addition and measured after 60 mins by AlphaLisa assay
[6] = target: T1, Histone-arginine methyltransferase CARM1 (Homo sapiens, UniProt Q86X55); assay: Inhibition of PRMT4 (unknown origin) using histone H3 (21 to 44 residues) as substrate measured after 60 mins in presence of SAM by AlphaLisa assay
T1 sequence (Q86X55 whole entry): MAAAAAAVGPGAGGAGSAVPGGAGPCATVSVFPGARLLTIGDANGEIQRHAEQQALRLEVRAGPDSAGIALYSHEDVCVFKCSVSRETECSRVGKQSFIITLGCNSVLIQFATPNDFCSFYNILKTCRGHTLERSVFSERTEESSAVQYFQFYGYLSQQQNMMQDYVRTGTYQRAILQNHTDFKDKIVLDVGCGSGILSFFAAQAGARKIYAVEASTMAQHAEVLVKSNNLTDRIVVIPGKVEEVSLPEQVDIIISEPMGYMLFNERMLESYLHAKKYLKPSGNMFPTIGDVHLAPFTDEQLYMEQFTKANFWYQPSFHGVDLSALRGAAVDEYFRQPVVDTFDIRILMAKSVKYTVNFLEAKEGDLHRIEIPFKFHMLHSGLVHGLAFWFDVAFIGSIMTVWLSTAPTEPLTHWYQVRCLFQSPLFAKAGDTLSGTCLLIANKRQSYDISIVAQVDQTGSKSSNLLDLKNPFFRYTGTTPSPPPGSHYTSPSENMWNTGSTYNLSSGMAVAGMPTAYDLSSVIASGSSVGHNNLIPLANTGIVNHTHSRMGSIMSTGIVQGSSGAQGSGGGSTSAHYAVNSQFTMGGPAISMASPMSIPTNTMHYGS

[7] = tested on: MONO-MAC-6; assay: Antiproliferative activity against human MONO-MAC-6 cells measured after 6 days by CCK8/SRB assay; type: functional, cell-based
[8] = tested on: MOLM-13; assay: Antitumor activity against human MOLM13 cells xenografted in BALB/c nude mouse assessed as tumor growth inhibition at 100 mg/kg, po administered daily for 18 days measured 2 to 3 times a week by caliper method relative to control; type: functional; conditions: MOLM-13, po, 432 h, read-out: TGI
[9] = target: T1, Histone-arginine methyltransferase CARM1; assay: Inhibition of PRMT4 in human MOLM13 cells assessed as reduction in PABP1 dimethylation measured after 96 hrs by Western blotting analysis; type: cell-based
[10] = tested on: MOLM-13; assay: Induction of apoptosis in human MOLM13 cells measured after 96 hrs by Annexin V-FITC/propidium iodide staining-based flow cytometry; type: functional, cell-based
[11] = tested on: MOLM-13; assay: Antiproliferative activity against human MOLM13 cells measured after 6 days by CCK8/SRB assay; conditions: MOLM-13, 144 h
[12] = Clearance in ICR mouse at 3 mg/kg, iv by mass spectrometric analysis; type: ADME, organism-based; conditions: in vivo
[13] = tested on: Mus musculus; assay: In vivo inhibition of PRMT4 in nude BALB/c mouse xenografted with human MOLM13 cells assessed as reduction in PABP1 dimethylation at 100 mg/kg, po administered daily for 18 days measured 6 hrs post-last dose by Western blot analysis; type: functional, organism-based
[14] = Oral bioavailability in ICR mouse at 10 mg/kg administered via gavage by mass spectrometric analysis; type: ADME, organism-based; conditions: in vivo
[15] = target: Protein arginine N-methyltransferase 7 (Homo sapiens, UniProt Q9NVM4); assay: Inhibition of recombinant full-length human PRMT7 expressed in Sf9 insect cells using Ac-KKDGKKRKRSRKESYK-biotin as substrate measured after 30 mins in presence of SAM by topcount scintillation counting method
[16] = tested on: K562; assay: Antiproliferative activity against human K562 cells measured after 6 days by CCK8/SRB assay; type: functional, cell-based
[17] = tested on: MOLM-13; assay: Induction of apoptosis in human MOLM13 cells assessed as total apoptotic cells at 12 uM measured after 96 hrs by Annexin V-FITC/propidium iodide staining-based flow cytometry relative to control; type: functional
[18] = target: Histone-lysine N-methyltransferase EZH2 (Homo sapiens) (UniProt Q15910); assay: Inhibition of EZH2 (unknown origin) up to 50 uM preincubated for 10 mins followed by peptide substrate addition and measured after 4 hrs in presence of SAM by HTRF assay
[19] = target: Histone-lysine N-methyltransferase 2A (Homo sapiens) (UniProt Q03164); assay: Inhibition of MLL1 (unknown origin) up to 50 uM preincubated for 10 mins followed by peptide substrate addition and measured after 4 hrs in presence of SAM by HTRF assay
[20] = tested on: THP-1; assay: Antiproliferative activity against human THP1 cells measured after 6 days by CCK8/SRB assay; type: functional, cell-based

Chain of Histone-lysine N-methyltransferase 2A (Homo sapiens) (Q03164 1-2718 limits assumed): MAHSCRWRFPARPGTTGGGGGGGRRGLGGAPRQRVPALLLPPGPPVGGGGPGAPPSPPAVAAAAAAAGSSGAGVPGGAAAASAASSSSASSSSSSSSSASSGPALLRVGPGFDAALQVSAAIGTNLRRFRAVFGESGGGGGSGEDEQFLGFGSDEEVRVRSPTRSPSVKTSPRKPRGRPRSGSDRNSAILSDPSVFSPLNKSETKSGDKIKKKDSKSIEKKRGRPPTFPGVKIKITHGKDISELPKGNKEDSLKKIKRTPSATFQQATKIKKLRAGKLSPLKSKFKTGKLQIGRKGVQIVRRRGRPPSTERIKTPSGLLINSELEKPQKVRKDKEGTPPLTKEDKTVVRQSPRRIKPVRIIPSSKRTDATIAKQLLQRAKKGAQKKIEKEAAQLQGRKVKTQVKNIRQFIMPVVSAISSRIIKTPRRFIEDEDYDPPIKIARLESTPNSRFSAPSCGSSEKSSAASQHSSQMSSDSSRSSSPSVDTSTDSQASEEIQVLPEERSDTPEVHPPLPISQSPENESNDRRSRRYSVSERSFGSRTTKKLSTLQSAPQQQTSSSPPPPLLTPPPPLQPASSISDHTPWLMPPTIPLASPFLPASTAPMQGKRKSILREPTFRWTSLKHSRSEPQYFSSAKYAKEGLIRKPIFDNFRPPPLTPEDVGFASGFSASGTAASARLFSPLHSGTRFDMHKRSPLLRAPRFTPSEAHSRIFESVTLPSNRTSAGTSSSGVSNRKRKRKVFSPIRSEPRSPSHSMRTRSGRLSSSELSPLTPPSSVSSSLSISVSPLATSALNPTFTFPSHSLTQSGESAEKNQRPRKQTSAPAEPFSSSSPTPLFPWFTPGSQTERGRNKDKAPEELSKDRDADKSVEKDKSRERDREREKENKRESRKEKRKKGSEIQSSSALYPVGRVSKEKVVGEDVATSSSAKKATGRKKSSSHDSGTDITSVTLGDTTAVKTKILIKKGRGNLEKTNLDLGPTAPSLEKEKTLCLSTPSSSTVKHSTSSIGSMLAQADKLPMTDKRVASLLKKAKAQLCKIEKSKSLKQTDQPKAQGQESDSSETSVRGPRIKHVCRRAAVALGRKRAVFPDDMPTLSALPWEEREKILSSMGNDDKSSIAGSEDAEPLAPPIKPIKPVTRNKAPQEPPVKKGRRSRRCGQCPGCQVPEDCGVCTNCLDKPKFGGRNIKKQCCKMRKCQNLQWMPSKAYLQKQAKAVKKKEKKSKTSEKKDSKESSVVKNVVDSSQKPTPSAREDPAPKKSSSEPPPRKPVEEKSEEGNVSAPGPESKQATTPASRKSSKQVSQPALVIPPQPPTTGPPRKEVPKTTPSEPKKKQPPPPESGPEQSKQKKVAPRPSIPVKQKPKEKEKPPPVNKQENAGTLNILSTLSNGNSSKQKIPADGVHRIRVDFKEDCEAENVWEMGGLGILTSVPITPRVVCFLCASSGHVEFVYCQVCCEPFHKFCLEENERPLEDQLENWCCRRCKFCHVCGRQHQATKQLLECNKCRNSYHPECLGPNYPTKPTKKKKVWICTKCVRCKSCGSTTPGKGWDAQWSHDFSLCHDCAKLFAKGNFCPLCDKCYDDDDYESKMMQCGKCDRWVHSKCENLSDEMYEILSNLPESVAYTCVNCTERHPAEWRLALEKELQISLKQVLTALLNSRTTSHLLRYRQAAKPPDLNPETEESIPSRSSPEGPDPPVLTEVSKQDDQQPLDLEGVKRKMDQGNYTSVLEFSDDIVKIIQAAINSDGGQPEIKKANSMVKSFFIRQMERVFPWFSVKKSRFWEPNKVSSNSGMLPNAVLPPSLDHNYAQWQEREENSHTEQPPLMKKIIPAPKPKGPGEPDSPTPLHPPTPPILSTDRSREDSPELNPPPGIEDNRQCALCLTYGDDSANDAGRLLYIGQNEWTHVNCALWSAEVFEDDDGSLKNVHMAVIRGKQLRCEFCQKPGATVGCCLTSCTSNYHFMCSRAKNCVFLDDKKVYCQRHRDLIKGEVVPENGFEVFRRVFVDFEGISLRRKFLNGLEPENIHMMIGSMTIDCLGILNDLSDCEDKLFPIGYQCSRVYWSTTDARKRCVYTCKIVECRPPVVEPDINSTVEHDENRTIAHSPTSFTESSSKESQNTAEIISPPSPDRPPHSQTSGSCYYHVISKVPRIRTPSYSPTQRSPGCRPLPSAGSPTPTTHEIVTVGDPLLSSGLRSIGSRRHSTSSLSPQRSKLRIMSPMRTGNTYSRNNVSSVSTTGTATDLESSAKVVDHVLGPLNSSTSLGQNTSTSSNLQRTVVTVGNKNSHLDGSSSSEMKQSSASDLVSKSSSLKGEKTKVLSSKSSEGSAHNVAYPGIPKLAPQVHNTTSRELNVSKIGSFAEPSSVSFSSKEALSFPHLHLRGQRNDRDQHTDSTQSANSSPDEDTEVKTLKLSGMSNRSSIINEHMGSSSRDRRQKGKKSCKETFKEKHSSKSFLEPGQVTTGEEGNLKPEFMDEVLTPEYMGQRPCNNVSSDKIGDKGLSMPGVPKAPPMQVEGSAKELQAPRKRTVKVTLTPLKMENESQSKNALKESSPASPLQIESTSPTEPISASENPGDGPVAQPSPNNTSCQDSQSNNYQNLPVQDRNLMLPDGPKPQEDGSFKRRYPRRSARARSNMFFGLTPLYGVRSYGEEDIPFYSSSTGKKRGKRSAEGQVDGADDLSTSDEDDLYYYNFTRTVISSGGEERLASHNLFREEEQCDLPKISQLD
Chain of Histone-lysine N-methyltransferase 2A (Homo sapiens) (Q03164 2719-3969 limits assumed): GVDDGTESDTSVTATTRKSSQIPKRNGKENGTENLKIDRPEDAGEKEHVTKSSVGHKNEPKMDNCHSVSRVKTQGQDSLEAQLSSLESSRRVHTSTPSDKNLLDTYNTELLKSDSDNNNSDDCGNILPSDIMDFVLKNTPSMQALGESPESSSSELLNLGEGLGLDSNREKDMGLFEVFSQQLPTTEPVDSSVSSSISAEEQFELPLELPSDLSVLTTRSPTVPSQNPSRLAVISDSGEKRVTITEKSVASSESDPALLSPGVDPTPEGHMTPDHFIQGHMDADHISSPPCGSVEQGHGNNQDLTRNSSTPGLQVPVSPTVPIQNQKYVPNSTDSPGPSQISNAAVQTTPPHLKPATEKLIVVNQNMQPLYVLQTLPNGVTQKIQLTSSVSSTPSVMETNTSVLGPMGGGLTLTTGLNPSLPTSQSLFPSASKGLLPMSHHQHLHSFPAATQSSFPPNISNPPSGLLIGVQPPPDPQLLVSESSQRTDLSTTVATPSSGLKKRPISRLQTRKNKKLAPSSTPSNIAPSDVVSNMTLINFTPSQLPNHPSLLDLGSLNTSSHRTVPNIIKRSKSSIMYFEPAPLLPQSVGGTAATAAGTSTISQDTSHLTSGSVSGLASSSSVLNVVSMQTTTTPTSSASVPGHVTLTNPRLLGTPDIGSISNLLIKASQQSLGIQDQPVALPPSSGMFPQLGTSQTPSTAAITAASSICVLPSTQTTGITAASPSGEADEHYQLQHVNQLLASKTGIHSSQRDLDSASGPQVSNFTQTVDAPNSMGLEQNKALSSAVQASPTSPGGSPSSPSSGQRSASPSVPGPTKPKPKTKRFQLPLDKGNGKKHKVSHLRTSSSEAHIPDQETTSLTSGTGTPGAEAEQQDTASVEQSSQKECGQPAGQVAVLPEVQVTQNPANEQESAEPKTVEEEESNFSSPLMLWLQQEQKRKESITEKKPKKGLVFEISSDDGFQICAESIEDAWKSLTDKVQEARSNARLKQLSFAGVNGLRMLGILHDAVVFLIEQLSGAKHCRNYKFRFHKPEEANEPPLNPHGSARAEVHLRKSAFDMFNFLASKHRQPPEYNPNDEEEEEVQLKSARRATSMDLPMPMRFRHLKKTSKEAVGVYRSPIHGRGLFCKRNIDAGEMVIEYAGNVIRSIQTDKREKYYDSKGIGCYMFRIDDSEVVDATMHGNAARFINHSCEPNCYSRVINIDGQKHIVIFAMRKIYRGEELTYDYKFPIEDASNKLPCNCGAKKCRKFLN
Chain of Histone-lysine N-methyltransferase EZH2 (Homo sapiens) (Q15910 whole entry, looked up): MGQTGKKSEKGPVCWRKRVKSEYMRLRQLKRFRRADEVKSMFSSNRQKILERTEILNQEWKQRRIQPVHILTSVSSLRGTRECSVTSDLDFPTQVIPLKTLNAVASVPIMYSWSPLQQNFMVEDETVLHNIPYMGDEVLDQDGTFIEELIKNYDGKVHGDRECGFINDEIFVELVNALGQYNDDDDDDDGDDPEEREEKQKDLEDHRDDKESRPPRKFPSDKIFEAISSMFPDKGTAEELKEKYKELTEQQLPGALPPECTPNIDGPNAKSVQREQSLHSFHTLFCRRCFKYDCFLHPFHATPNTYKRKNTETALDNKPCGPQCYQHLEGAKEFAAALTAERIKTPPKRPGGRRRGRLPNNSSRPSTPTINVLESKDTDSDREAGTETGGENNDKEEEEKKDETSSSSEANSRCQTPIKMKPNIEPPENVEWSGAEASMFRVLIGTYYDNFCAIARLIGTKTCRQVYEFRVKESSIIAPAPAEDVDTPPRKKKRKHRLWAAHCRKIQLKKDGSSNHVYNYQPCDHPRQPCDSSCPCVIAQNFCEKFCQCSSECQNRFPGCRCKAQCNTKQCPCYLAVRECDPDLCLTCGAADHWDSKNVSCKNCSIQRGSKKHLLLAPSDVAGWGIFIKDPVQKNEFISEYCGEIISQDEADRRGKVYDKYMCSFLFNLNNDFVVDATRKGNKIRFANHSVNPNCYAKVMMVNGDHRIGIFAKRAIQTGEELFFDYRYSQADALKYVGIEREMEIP
Chain of Histone-lysine N-methyltransferase SMYD3 (Homo sapiens) (Q9H7B4 whole entry): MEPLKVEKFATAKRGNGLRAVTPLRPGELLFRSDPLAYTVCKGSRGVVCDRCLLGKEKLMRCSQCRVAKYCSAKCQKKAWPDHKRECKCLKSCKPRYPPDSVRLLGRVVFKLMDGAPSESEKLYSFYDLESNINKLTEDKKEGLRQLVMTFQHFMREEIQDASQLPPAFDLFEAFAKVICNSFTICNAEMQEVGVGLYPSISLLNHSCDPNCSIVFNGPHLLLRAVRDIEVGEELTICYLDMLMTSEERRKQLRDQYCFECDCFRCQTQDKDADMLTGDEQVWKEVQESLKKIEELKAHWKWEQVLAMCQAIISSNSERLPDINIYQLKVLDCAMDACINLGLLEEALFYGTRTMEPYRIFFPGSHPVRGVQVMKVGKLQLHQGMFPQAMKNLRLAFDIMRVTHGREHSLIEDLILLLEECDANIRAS

With `CNC[C@@H](O)CN1CCc2c(cccc2OCc2ccc(-c3nccs3)cc2)C1` the Ratio [1] was 20 to 30, the inhibition [2] was “inactive” and the fraction unbound at 2 µM [3] was 0.02. The inhibition [4] was “inactive”, the inhibition [5] was “inactive” and the IC50 [6] was 21 nM. The Activity [7] was “Dose-dependent effect”, the inhibition in vivo at 100 mg/kg [8] was 53.5% and the IC50 [9] was 545 nM. The Activity [10] was “Dose-dependent effect”, the IC50 [11] was 6930 nM and the clearance [12] was 44.9 mL/min/kg. For the same molecule, the inhibition [13] was “Active”, the bioavailability [14] was 48.8% and the IC50 [15] was greater than 30000 nM. For the same molecule, the Activity [16] was “Dose-dependent effect”, the Activity [17] was 96.4% and the inhibition [18] was “inactive”. For the same molecule, the inhibition [19] was “inactive” and the Activity [20] was “Dose-dependent effect”.
